Test results as given in patent publication US4863748A, “Dietary products and uses comprising methylsulfonylmethane” (priority 1986, dated 1989).

What was measured:
[1] = system: gum inflammation and oral mucosa; assay: Oral hygiene (Example 11); format: in vivo, human
sun and wind burn = assay: Sun and wind burn (Example 23); format: in vivo, human; conditions: 0.5-2 gm/day, about 4 hours exposure; companions severely burned
coat = assay: Coat quality of guinea pigs (Example 8); format: in vivo; conditions: 2 wt. % in water, 28 days
From the text: Ten 4-week old guinea pigs were housed in individual metal cages in a standard temperature room with a 12-hour light/dark cycle and acclimated over a 5-day period of feeding Purina guinea pig chow with water ad lib.
On day six, five animals were marked on the belly with red and the other five with blue water-insoluble ink. The marks were not visible when the animals were observed from above. Each animal after marking was returned to its cage and a corresponding red or blue tape affixed to the animal's watering bottle. The red marked bottles were maintained with tap water and the blue marked bottles were filled with tap water containing 2 wt. % methylsulfonylmethane. During a 28 day period, the animals were fed and allowed access to their water or water+2% methylsulfonylmethane, respectively, ad lib. On day 28, the animals were placed in common confinement on a well lighted table. Four individuals, totally unfamiliar with the test and its purpose were asked to evaluate the coat of each animal. Animals at each evaluation were removed by the evaluator and placed into one of two groups based on better or poorer quality of the animal's coat without seeing the color on the animal's belly.

[2] = Naturally occurring body levels of methylsulfonylmethane; format: in vivo, animals
From the text: The methylsulfonylmethane is usually provided in the aninmal's normal feed rations, periodically throughout the day or on successive days, or both, e.g., for 2 to 21 days or even longer. The daily food ration appropriate for the animal being fed is supplemented with an amount of methylsulfonylmethane calculated to correspond to a predetermined amount per total body weight of the animals being fed. The exact amount of methylsulfonylmethane ingested each day is not always critical, particularly when methylsulfonylmethane administration is over an extended period of days, because the ingested methylsulfonylmethane accumulates in the body tissues and fluids, i.e., reaches an effective titer. Methylsulfonylmethane-supplemented rations providing levels of as low as 0.5-1 mg/kg animal body weight are sometimes effective and levels as high as 300 mg/kg body weight or more are well tolerated. The usual target level per individual animal is about 0.2-2.0 mg/kg body weight preferably 0.5-1.0 mg per kg body weight. Total daily supplements corresponding to up to about 1 gm/kg body weight or more, are preferably employed, depending on the degree of deficiency. Healthy animals often have methylsulfonylmethane blood levels of at least 1 ppm, and desirably, enough methylsulfonylmethane is provided to raise blood levels to above 1 ppm. […]

anticholinesterases = assay: Antagonism of lethal effects of anticholinesterases; conditions: as stated in Example 19
[3] = Tolerance of intravenous infusion; format: in vivo, human patients; conditions: for side effect at infusion rate as high as 2 gm/kg/hr: i.v., some patients
Experimental: The amount of methylsulfonylmethane intravenously administered can vary substantially because of its lack of toxicity and adverse side effects. Individual doses can vary from about 0.01 to 2 gm/kg, preferably from about 0.1 to 1 gm/kg, on a body weight basis, the usual dosage range is about 0.25 to 0.75 gm/kg, preferably about 0.5 gm/kg.
When large amounts are administered, e.g., in the order of 1 g/kg of body weight or more, i.e., infusion of 5% to 10% solution of methylsulfonylmethane in water, physiological saline or 5% dextrose is preferred. The rate of administration is preferably no greater than about 1 gm/kg/hr, although infusion rates as high as 2 gm/kg/hr are tolerated by patients, except for light-headedness of the type experienced by some blood donors is experienced by some patients at this rate.
Such massive i.v. administrations can be repeated as frequently as every 24 hours.

skin = assay: Effect on skin tissue; conditions: in vivo
From the text: Studies to date indicate that it is desirable that animals ingest about 0.5-1.0 milligram/kg body weight/day of methylsulfonylmethane to maintain optimum good health. However, any lower level will serve some benefit. Higher levels are either stored in the body as a sulfur reserve, provide a sufficient concentration to optimize synthesis of the multitude of required sulfur containing biomolecules, or simply are excreted as by the renal pathway or through the skin.

arthritic patients = assay: Chemical profile of arthritic patients; format: in vivo, human; conditions: drop from 600+
From the text: 8. Improving the chemical profile of arthritic patients, e.g., providing relief from pain and stiffness, reduced swelling and inflammation, coupled with a return of blood chemistry towards normalcy, for example, a RH titer drop from 600+to 300 or lower.

CS(C)(=O)=O [methylsulfonylmethane]
sense of taste ([1]; critical observers): improved
sense of smell ([1]; gargle, two subjects with restricted sense of smell): sharpening of this sense
bad breath associated with smoking or food ([1]; in water, saline solution or oral hygiene product): reduced or eliminated
viscosity of the mucous ([1]; subjects with viscid mucoid nasopharyngeal discharge): reduction in the viscosity of the mucous
suffering from sun and wind exposure (sun and wind burn): suffered only mildly
animals with blue belly mark selected as superior by fourth evaluator (coat): three
evaluators selecting the five treated animals as having superior coats (coat): Three of the four evaluators
blood level in healthy animals ([2]; healthy animals often): at least 1 ppm
methylsulfonylmethane in the humoral fluid ([2]; with maturity): less than 0.5 ppm
antagonism of anticholinesterases in vivo (anticholinesterases): antagonizes
tolerated infusion rate ([3]; i.v. infusion): ≤ 2 gm/kg/hr
side effect at infusion rate as high as 2 gm/kg/hr [3]: light-headedness
side effect at infusion rate as high as 2 gm/kg/hr ([3]; listed as dimethylsulfone): transient light-headedness
pliability and softness of the skin (skin): improving
RH titer (arthritic patients): ≤ 300
